# Laboratory results published in US11925624B2, “Methods of administering anti-fibrotic therapy” (GENENTECH, INC., priority 2016, dated 2024).
# Several values for one entry are separate records, joined by “and”; a condition that tells them apart may be missing. Identical values can stand only once. Entries after “also recorded” stand apart in the source; their conditions may differ. Like-named read-outs stand apart in the source and are kept apart here.
# Assay: Phase 1 single ascending dose (Part A) pharmacokinetics, fasted state
# Type: in vivo, human
# Conditions: for % AUCextrap: arithmetic mean; for AUC(0-inf) / AUC(0-t) / Cmax / Vd/F / half-life / Tmax / CL renal: human; for AUC(0-inf) / AUC(0-t) / Cmax / Vd/F / half-life / Tmax: plasma
# Procedure: A Phase 1, randomized, blinded, placebo-controlled safety, tolerability, and pharmacokinetic study of Compound I in 80 healthy adult subjects was conducted.
# This study was a randomized, blinded, placebo-controlled, ascending-dose study to evaluate the safety, tolerability, and pharmacokinetic (PK) of single (Part A) and multiple (Part B) doses of Compound I in healthy subjects. In addition, the effects of a standard high-fat breakfast, standard low-fat breakfast, and pretreatment and co-administration of a proton pump inhibitor (PPI) on the tolerability and PK of a single dose of Compound I were investigated in 2 groups in Part A. All subjects received their full dose of Compound I, administered as the appropriate number of either 25 or 200 mg tablets. The high fat breakfast comprised the following: total energy: 895 kcal; total fat: 61 g; total protein: 41 g; total carbohydrate: 46 g. The low fat breakfast comprised the following: total energy: 611 kcal; total fat: 14.7 g; total protein: 20.3 g; total carbohydrate: 106.3 g.
# In Part A, 56 subjects were studied in 6 groups (Groups A1 to A6) with each of Groups A1, A2, A3, A5, and A6 composed of 8 subjects (6 received Compound I, 2 received placebo) and Group A4 was composed of 16 subjects (12 received Compound I, 4 received placebo). The first dose group (A1) included a sentinel cohort of 2 subjects (1 subject received Compound I and 1 subject received placebo) dosed 48 hours in advance of the remainder of the group.
# All subjects in Groups A1 through A6 participated in Treatment Period 1 and received the fasted treatment regimen. In Treatment Period 1, subjects resided at the Clinical Research Unit (CRU) from Day −1 (the day before dosing) to Day 4 (72 hours post-dose). In Treatment Period 1, all doses were administered on the morning of Day 1, after an overnight fast of at least 8 hours. In Groups A1, A2, A3, and A6, each subject received only a single dose of Compound I (25 mg in Group A1, 75 mg in Group A2, 200 mg in Group A3, and 1600 mg in Group A6) or placebo (per the randomization schedule) during the study.
# In Part A, all doses in Treatment Period 1 were administered after an overnight fast of at least 8 hours. For the A4 cohort, in Treatment Periods 2 and 3, doses were administered 30 minutes after starting and approximately 10 minutes after completing a high- or low-fat breakfast. In Treatment Period 4, the dose was administered after an overnight fast and following administration of a PPI (PPI was comprised of 3 doses of rabeprazole 20 mg, starting on Day −2 and with the final dose 2 hours before Compound I administration on Day 1). For Group A5, doses during Treatment Period 2 were administered 30 minutes after starting and approximately 10 minutes after completing a low-fat standard breakfast on the morning of Day 1, and doses during Treatment Period 3 were administered on Day 1 after a low-fat meal and following administration of a PPI for 3 days (given as 3 QD doses, with the final PPI dose at 2 hours prior to study drug administration on Day 1).
# [1] = 75 mg vs 25 mg (3-fold increase in dose)
# [2] = 800-mg dose level (32.0-fold increase in dose)
smiles,measurement,setting,value
Cn1cc(-c2cn(-c3ccc(OC(F)(F)F)cc3)c(=O)c3ncn(C)c23)cn1 [Compound I],AUC0-t (norm),25 mg single dose (A1),13400 hr*ng/mL/(mg/kg)
same,AUC0-∞ (norm),25 mg single dose (A1),13600 hr*ng/mL/(mg/kg)
same,Ae0-24,25 mg single dose (A1),19.2 mg
same,CL/F,25 mg single dose (A1),90.5 mL/min
same,CL/F(norm),25 mg single dose (A1),1.23 (mL/min)/kg
same,Cmax (norm),25 mg single dose (A1),2700 ng/mL/(mg/kg)
same,fe0-24,25 mg single dose (A1),76.9%
same,t1/2,25 mg single dose (A1),3.61 h
same,λZ,25 mg single dose (A1),0.192 h⁻¹
same,% AUCextrap,25 mg single dose (A1),1.25%
same,AUC0-t (norm),75 mg single dose (A2),12600 hr*ng/mL/(mg/kg)
same,AUC0-∞ (norm),75 mg single dose (A2),12600 hr*ng/mL/(mg/kg)
same,Ae0-24,75 mg single dose (A2),54.8 mg
same,CL/F,75 mg single dose (A2),96.0 mL/min
same,CL/F(norm),75 mg single dose (A2),1.32 (mL/min)/kg
same,Cmax (norm),75 mg single dose (A2),2180 ng/mL/(mg/kg)
same,fe0-24,75 mg single dose (A2),73.0%
same,t1/2,75 mg single dose (A2),5.02 h
same,λZ,75 mg single dose (A2),0.138 h⁻¹
same,% AUCextrap,75 mg single dose (A2),0.486%
same,Fold increase in AUC0-t,[1],2.9 fold
same,Fold increase in AUC0-∞,[1],2.8 fold
same,Fold increase in Cmax,[1],2.5 fold
same,AUC0-t (norm),200 mg single dose (A3),12000 hr*ng/mL/(mg/kg)
same,AUC0-∞ (norm),200 mg single dose (A3),12100 hr*ng/mL/(mg/kg)
same,Ae0-24,200 mg single dose (A3),105 mg
same,CL/F,200 mg single dose (A3),102 mL/min
same,CL/F(norm),200 mg single dose (A3),1.38 (mL/min)/kg
same,Cmax (norm),200 mg single dose (A3),1140 ng/mL/(mg/kg)
same,fe0-24,200 mg single dose (A3),52.5%
same,λZ,200 mg single dose (A3),0.0602 h⁻¹
same,% AUCextrap,200 mg single dose (A3),0.969%
same,AUC0-t (norm),400 mg single dose (A4),9420 hr*ng/mL/(mg/kg)
same,AUC0-∞ (norm),400 mg single dose (A4),9650 hr*ng/mL/(mg/kg)
same,Ae0-24,400 mg single dose (A4),133 mg
same,CL/F,400 mg single dose (A4),121 mL/min
same,CL/F(norm),400 mg single dose (A4),1.73 (mL/min)/kg
same,Cmax (norm),400 mg single dose (A4),790 ng/mL/(mg/kg)
same,fe0-24,400 mg single dose (A4),33.3%
same,λZ,400 mg single dose (A4),0.0594 h⁻¹
same,% AUCextrap,400 mg single dose (A4),2.37%
same,AUC0-t (norm),800 mg single dose (A5),6700 hr*ng/mL/(mg/kg)
same,AUC0-∞ (norm),800 mg single dose (A5),7080 hr*ng/mL/(mg/kg)
same,Ae0-24,800 mg single dose (A5),172 mg
same,CL/F,800 mg single dose (A5),169 mL/min
same,CL/F(norm),800 mg single dose (A5),2.35 (mL/min)/kg
same,Cmax (norm),800 mg single dose (A5),532 ng/mL/(mg/kg)
same,fe0-24,800 mg single dose (A5),21.5%
same,λZ,800 mg single dose (A5),0.0433 h⁻¹
same,% AUCextrap,800 mg single dose (A5),5.17%
same,Increase in AUC and Cmax,1600 mg dose compared to 800 mg dose,no significant increase
same,AUC0-t (norm),1600 mg single dose (A6),3090 hr*ng/mL/(mg/kg)
same,AUC0-∞ (norm),1600 mg single dose (A6),3740 hr*ng/mL/(mg/kg)
same,Ae0-24,1600 mg single dose (A6),145 mg
same,CL/F,1600 mg single dose (A6),307 mL/min
same,CL/F(norm),1600 mg single dose (A6),4.46 (mL/min)/kg
same,Cmax (norm),1600 mg single dose (A6),235 ng/mL/(mg/kg)
same,fe0-24,1600 mg single dose (A6),9.1% and 9.09%
same,λZ,1600 mg single dose (A6),0.0351 h⁻¹
same,% AUCextrap,1600 mg single dose (A6),6.57%
same,Dose proportionality of systemic exposure (Cmax and AUC),200-mg dose and greater,less than proportional
same,Fold increase in AUC0-t,[2],16.4 fold
same,Fold increase in AUC0-∞,[2],17.1 fold
same,Fold increase in Cmax,[2],6.5 fold
same,Dose proportionality of systemic exposure (Cmax and AUC),between 25 and 75 mg,dose-proportional; also recorded: consistent with linear PK
same,AUC(0-inf),"oral, 25 mg single dose (A1)",4600 ng·h/mL
same,AUC(0-t),"oral, 25 mg single dose (A1)",4550 ng·h/mL
same,Cmax,"oral, 25 mg single dose (A1)",913 ng/mL
same,Vd/F,"oral, 25 mg single dose (A1), read-out: Vz/F",28.3 L
same,Vd/F,"oral, 25 mg single dose (A1), read-out: Vz/F(norm)",0.384 L/kg
same,half-life,"oral, 25 mg, 25 mg single dose (A1)",3.6 h
same,Tmax,"oral, 25 mg, 25 mg single dose (A1), median, read-out: tmax",1.5 h
same,AUC(0-inf),"oral, 75 mg single dose (A2)",13000 ng·h/mL
same,AUC(0-t),"oral, 75 mg single dose (A2)",13000 ng·h/mL
same,Cmax,"oral, 75 mg single dose (A2)",2250 ng/mL
same,Vd/F,"oral, 75 mg single dose (A2), read-out: Vz/F",41.7 L
same,Vd/F,"oral, 75 mg single dose (A2), read-out: Vz/F(norm)",0.574 L/kg
same,half-life,"oral, 75 mg, 75 mg single dose (A2)",5 h
same,Tmax,"oral, 75 mg, 75 mg single dose (A2), median, read-out: tmax",1.25 h
same,Tmax,"oral, 75 mg, 25 and 75 mg doses, read-out: tmax, latest individual value",≤ 2.5 h
same,AUC(0-inf),"oral, 200 mg single dose (A3)",32600 ng·h/mL
same,AUC(0-t),"oral, 200 mg single dose (A3)",32300 ng·h/mL
same,Cmax,"oral, 200 mg single dose (A3)",3060 ng/mL
same,Vd/F,"oral, 200 mg single dose (A3), read-out: Vz/F",102 L
same,Vd/F,"oral, 200 mg single dose (A3), read-out: Vz/F(norm)",1.37 L/kg
same,half-life,"oral, 200 mg, 200 mg single dose (A3)",10.2 h
same,Tmax,"oral, 200 mg, 200 mg single dose (A3), median, read-out: tmax",1.75 h
same,AUC(0-inf),"oral, 400 mg single dose (A4)",55100 ng·h/mL
same,AUC(0-t),"oral, 400 mg single dose (A4)",53800 ng·h/mL
same,Cmax,"oral, 400 mg single dose (A4)",4510 ng/mL
same,Vd/F,"oral, 400 mg single dose (A4), read-out: Vz/F",122 L
same,Vd/F,"oral, 400 mg single dose (A4), read-out: Vz/F(norm)",1.74 L/kg
same,half-life,"oral, 400 mg, 400 mg single dose (A4)",11.7 h
same,Tmax,"oral, 400 mg, 400 mg single dose (A4), median, read-out: tmax",2.5 h
same,AUC(0-inf),"oral, 800 mg single dose (A5)",78700 ng·h/mL
same,AUC(0-t),"oral, 800 mg single dose (A5)",74500 ng·h/mL
same,Cmax,"oral, 800 mg single dose (A5)",5910 ng/mL
same,Vd/F,"oral, 800 mg single dose (A5), read-out: Vz/F",234 L
same,Vd/F,"oral, 800 mg single dose (A5), read-out: Vz/F(norm)",3.26 L/kg
same,half-life,"oral, 800 mg, 800 mg single dose (A5)",11.3 h
same,Tmax,"oral, 800 mg, 800 mg single dose (A5), median, read-out: tmax",1.8 h
same,AUC(0-inf),"oral, 1600 mg single dose (A6)",86900 ng·h/mL
same,AUC(0-t),"oral, 1600 mg single dose (A6)",73600 ng·h/mL
same,Cmax,"oral, 1600 mg single dose (A6)",5580 ng/mL
same,Vd/F,"oral, 1600 mg single dose (A6), read-out: Vz/F",525 L
same,Vd/F,"oral, 1600 mg single dose (A6), read-out: Vz/F(norm)",7.62 L/kg
same,half-life,"oral, 1600 mg, 1600 mg single dose (A6)",19.8 h
same,Tmax,"oral, 1600 mg, 1600 mg single dose (A6), median, read-out: tmax",2 h
same,Tmax,"oral, higher dose levels (200 to 1600 mg), read-out: tmax, latest individual value",≤ 6 h
same,Tmax,"po, single oral doses 25 to 1600 mg, read-out: Median tmax, range across all doses",1.3 to 2.5 h
same,CL renal,"urine and plasma, oral, 400 mg single dose (A4)",49.7 mL/min
same,CL renal,"urine and plasma, oral, 800 mg single dose (A5)",48.5 mL/min
same,CL renal,"urine and plasma, oral, 1600 mg single dose (A6)",47.6 mL/min
same,CL renal,"urine, oral, 25 mg single dose (A1)",70.5 mL/min
same,CL renal,"urine, oral, 75 mg single dose (A2)",71.8 mL/min
same,CL renal,"urine, oral, 200 mg single dose (A3)",63.5 mL/min
